# Source: the NIST ThermoML archive (doi:10.1021/je900669t)
# Numbers after ± are expanded uncertainties.
# Experiments:
# [1] = refractive index (Na D-line) (dimensionless); conditions: 293.15 K; 101.33 kPa; Liquid; Standard Abbe refractometry
# [2] = Liquid; for mass density: 298.15 K, 101.33 kPa; for Normal boiling temperature: Ebulliometric method (Recirculating still)
Compound,refractive index [1],mass density [2] [kg/m3],Normal boiling temperature [2] [°C]
"CC(=O)CC(C)=O [2,4-pentanedione]",1.4489 ± 0.0005,971.7 ± 1.4,140.5 ± 0.2
C1CCCCC1 [cyclohexane],1.4259 ± 0.0005,779.6 ± 7.6,80.8 ± 0.2
CC(=O)O [acetic acid],1.3715 ± 0.0005,1046.9 ± 1.6,118.29 ± 0.2
